Source: PMC9150124, “Design of a Potent, Selective, and Brain-Penetrant Inhibitor of Wnt-Deactivating Enzyme Notum by Optimization of a Crystallographic Fragment Hit” (Journal of Medicinal Chemistry, 2022)

Legend:
Experiment in all cases: SelectScreen kinase profiling, SSBK ZLyte SP Technology
Assay type in all cases: biochemical
[1] = molecular target: kinase named in conditions (Homo sapiens, UniProt O00418); settings: EEF2K, 10 μM
Experimental: (§1) Kinase selectivity screening was performed by Thermo Fisher Scientific (Paisley, U.K.) in their SelectScreen Biochemical Kinase Profiling Service. Assay information and data are presented in the Supporting Information.
(§2) Kinase selectivity screening was performed by ThermoFisher Scientific (Paisley, U.K.) in their SelectScreenTM
(§3) Biochemical Kinase Profiling service .

[2] = molecular target: kinase named in conditions (Homo sapiens, UniProt O00506); settings: STK25 (YSK1), 10 μM
Sequence of kinase named in conditions (Homo sapiens, UniProt O00506) (O00506 whole entry): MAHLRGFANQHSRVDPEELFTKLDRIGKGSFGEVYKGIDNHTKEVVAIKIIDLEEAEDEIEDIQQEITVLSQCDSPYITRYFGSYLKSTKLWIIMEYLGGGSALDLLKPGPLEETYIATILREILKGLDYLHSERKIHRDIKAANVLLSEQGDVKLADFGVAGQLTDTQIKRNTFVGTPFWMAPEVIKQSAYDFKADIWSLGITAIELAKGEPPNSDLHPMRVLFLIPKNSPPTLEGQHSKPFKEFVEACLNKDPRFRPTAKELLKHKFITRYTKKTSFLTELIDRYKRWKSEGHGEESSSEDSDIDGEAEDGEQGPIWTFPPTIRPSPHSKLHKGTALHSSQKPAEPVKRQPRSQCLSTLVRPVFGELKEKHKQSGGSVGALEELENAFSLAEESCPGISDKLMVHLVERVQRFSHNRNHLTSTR
Experimental: as §1, §2, §3

[3] = molecular target: kinase named in conditions (Homo sapiens, UniProt O14757); settings: CHEK1 (CHK1), 10 μM
Experimental: as §1, §2, §3

[4] = molecular target: kinase named in conditions (Homo sapiens, UniProt O15075); settings: DCAMKL1 (DCLK1), 10 μM
Sequence of kinase named in conditions (Homo sapiens, UniProt O15075) (O15075 whole entry): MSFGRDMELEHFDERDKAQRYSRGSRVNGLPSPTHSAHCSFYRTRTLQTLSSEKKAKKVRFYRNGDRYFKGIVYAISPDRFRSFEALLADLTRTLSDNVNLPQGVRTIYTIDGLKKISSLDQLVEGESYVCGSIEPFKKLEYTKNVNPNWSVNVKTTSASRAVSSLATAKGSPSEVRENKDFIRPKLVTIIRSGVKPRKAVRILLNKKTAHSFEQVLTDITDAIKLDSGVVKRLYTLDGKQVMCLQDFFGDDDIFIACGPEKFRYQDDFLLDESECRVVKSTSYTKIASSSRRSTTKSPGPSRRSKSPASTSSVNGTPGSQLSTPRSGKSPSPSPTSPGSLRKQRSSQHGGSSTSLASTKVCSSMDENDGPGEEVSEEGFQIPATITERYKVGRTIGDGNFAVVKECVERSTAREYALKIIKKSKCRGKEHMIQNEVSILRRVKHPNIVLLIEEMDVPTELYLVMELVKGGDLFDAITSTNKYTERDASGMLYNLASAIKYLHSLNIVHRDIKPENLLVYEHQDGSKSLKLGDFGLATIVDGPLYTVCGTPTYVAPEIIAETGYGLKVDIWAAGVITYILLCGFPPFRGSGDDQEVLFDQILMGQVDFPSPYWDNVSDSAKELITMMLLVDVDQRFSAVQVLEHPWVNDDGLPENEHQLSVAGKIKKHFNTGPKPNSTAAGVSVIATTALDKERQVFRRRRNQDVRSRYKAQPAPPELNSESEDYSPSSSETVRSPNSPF
Experimental: as §1, §2, §3

[5] = molecular target: kinase named in conditions (Homo sapiens, UniProt O60674, V617F); settings: JAK2 JH1 JH2 V617F, 10 μM
Experimental: as §1, §2, §3

[6] = molecular target: kinase named in conditions (Homo sapiens, UniProt O95819); settings: MAP4K4 (HGK), 10 μM
Experimental: as §1, §2, §3

[7] = molecular target: kinase named in conditions (Homo sapiens, UniProt P00519, Y253F); settings: ABL1 Y253F, 10 μM
Experimental: as §1, §2, §3

[8] = molecular target: kinase named in conditions (Homo sapiens, UniProt P05129); settings: PRKCG (PKC gamma), 10 μM
Experimental: as §1, §2, §3

[9] = molecular target: kinase named in conditions (Homo sapiens, UniProt P08069); settings: IGF1R, 10 μM
Experimental: as §1, §2, §3

[10] = molecular target: kinase named in conditions (Homo sapiens, UniProt P08922); settings: ROS1, 10 μM
Experimental: as §1, §2, §3

[11] = molecular target: kinase named in conditions (Homo sapiens, UniProt P16234); settings: PDGFRA (PDGFR alpha), 10 μM
Experimental: as §1, §2, §3

[12] = molecular target: kinase named in conditions (Homo sapiens, UniProt P25098); settings: ADRBK1 (GRK2), 10 μM
Sequence of kinase named in conditions (Homo sapiens, UniProt P25098) (P25098 whole entry): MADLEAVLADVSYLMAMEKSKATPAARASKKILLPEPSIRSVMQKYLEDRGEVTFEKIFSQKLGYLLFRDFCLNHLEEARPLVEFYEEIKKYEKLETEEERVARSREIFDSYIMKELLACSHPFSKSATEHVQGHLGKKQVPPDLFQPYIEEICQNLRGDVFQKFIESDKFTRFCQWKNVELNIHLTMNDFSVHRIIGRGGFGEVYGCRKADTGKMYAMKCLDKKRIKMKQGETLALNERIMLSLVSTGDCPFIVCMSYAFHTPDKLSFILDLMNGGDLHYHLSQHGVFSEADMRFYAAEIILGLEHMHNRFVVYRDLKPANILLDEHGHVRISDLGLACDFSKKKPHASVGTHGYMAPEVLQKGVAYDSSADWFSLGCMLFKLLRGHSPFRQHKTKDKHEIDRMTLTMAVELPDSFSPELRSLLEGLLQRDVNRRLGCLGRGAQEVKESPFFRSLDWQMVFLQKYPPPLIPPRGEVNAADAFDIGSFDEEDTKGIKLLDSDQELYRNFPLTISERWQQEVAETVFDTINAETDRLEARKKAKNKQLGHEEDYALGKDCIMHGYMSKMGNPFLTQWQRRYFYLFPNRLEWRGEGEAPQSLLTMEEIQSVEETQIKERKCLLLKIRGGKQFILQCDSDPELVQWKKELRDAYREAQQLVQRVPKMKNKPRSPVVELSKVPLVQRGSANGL
Experimental: as §1, §2, §3

[13] = molecular target: kinase named in conditions (Homo sapiens, UniProt P29597); settings: TYK2, 10 μM
Experimental: as §1, §2, §3

[14] = molecular target: kinase named in conditions (Homo sapiens, UniProt P43250); settings: GRK6, 10 μM
Sequence of kinase named in conditions (Homo sapiens, UniProt P43250) (P43250 whole entry): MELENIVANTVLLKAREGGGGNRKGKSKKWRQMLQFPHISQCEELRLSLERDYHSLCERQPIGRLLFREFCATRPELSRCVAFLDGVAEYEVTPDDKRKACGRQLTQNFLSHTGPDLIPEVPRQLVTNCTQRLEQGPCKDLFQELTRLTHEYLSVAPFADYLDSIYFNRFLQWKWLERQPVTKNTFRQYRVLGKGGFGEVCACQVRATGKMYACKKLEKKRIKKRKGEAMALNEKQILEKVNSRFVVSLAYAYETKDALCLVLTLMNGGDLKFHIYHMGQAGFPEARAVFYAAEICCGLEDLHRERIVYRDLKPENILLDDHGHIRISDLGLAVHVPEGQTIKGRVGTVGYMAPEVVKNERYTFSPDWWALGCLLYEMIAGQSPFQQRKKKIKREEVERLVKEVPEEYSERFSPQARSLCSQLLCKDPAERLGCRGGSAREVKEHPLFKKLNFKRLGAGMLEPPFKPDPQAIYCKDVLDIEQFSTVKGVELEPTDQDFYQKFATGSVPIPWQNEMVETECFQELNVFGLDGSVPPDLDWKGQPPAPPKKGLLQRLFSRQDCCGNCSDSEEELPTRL
Experimental: as §1, §2, §3

[15] = molecular target: kinase named in conditions (Homo sapiens, UniProt P45983); settings: MAPK8 (JNK1), 10 μM
Experimental: as §1, §2, §3

[16] = molecular target: kinase named in conditions (Homo sapiens, UniProt P48730); settings: CSNK1D (CK1 delta), 10 μM
Experimental: as §1, §2, §3

[17] = molecular target: kinase named in conditions (Homo sapiens, UniProt P51451); settings: BLK, 10 μM
Sequence of kinase named in conditions (Homo sapiens, UniProt P51451) (P51451 whole entry): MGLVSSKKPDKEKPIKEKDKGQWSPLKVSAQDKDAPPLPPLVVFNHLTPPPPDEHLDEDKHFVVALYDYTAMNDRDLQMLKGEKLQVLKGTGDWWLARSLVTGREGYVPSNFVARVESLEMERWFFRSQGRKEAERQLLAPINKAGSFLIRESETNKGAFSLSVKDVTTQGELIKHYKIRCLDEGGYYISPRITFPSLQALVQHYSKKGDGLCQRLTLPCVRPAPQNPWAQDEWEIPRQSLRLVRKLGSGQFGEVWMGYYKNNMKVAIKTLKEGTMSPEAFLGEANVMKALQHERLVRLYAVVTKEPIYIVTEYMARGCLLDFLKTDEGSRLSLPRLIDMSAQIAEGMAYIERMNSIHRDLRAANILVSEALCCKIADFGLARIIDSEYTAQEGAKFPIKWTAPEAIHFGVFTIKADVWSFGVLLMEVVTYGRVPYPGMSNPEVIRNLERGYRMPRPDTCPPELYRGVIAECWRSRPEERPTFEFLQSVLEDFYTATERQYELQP
Experimental: as §1, §2, §3

[18] = molecular target: kinase named in conditions (Homo sapiens, UniProt P51957); settings: NEK4, 10 μM
Experimental: as §1, §2, §3

[19] = molecular target: kinase named in conditions (Homo sapiens, UniProt P53350); settings: PLK1, 10 μM
Sequence of kinase named in conditions (Homo sapiens, UniProt P53350) (P53350 whole entry): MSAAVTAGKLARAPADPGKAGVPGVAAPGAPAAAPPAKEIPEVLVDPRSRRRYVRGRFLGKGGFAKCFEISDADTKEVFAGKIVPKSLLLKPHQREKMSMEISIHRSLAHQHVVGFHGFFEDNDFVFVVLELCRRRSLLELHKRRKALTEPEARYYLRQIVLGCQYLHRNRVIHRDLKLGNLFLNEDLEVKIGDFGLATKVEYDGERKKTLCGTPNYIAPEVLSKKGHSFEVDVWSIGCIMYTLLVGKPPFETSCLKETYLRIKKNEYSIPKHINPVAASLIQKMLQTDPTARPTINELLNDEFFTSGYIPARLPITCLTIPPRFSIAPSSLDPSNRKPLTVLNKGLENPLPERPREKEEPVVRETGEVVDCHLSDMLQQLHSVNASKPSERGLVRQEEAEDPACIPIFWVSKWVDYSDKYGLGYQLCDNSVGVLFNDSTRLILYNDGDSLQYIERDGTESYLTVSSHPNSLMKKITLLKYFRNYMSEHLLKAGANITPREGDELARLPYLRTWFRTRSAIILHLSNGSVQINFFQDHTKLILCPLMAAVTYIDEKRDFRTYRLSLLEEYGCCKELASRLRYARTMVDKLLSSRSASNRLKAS
Experimental: as §1, §2, §3

[20] = molecular target: kinase named in conditions (Homo sapiens, UniProt P54760); settings: EPHB4, 10 μM
Experimental: as §1, §2, §3

[21] = molecular target: kinase named in conditions (Homo sapiens, UniProt P54764); settings: EPHA4, 10 μM
Experimental: as §1, §2, §3

[22] = molecular target: kinase named in conditions (Homo sapiens, UniProt P68400); settings: CSNK2A1 (CK2 alpha 1), 10 μM
Experimental: as §1, §2, §3

[23] = molecular target: kinase named in conditions (Homo sapiens, UniProt P78527); settings: DNA-PK, 10 μM
Experimental: as §1, §2, §3

[24] = molecular target: kinase named in conditions (Homo sapiens, UniProt P80192); settings: MAP3K9 (MLK1), 10 μM
Experimental: as §1, §2, §3

[25] = molecular target: kinase named in conditions (Homo sapiens, UniProt Q04759); settings: PRKCQ (PKC theta), 10 μM
Sequence of kinase named in conditions (Homo sapiens, UniProt Q04759) (Q04759 whole entry): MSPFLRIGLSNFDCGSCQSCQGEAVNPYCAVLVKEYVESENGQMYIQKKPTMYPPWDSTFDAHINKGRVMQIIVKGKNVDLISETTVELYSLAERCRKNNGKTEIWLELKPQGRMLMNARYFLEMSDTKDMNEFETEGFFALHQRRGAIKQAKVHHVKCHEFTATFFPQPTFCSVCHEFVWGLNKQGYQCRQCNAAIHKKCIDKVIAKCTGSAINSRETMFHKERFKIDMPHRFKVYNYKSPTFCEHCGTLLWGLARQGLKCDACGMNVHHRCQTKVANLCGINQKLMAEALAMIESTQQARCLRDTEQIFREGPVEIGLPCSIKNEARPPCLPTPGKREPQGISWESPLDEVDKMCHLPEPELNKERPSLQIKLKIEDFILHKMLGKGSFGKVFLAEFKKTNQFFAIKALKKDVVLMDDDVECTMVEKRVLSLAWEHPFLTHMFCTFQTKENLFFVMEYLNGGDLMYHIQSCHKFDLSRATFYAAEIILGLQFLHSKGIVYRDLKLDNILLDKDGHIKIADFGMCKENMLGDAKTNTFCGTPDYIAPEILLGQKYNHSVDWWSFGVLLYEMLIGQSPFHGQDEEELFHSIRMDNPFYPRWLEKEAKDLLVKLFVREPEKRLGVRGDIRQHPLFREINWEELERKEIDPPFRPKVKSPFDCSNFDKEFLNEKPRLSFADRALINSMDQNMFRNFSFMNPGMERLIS
Experimental: as §1, §2, §3

[26] = molecular target: kinase named in conditions (Homo sapiens, UniProt Q86Z02); settings: HIPK1 (Myak), 10 μM
Experimental: as §1, §2, §3

[27] = molecular target: kinase named in conditions (Homo sapiens, UniProt Q8N4C8); settings: MINK1, 10 μM
Experimental: as §1, §2, §3

[28] = molecular target: kinase named in conditions (Homo sapiens, UniProt Q96BR1); settings: SGKL (SGK3), 10 μM
Experimental: as §1, §2, §3

[29] = molecular target: kinase named in conditions (Homo sapiens, UniProt Q96L34); settings: MARK4, 10 μM
Experimental: as §1, §2, §3

[30] = molecular target: kinase named in conditions (Homo sapiens, UniProt Q96SB4); settings: SRPK1, 10 μM
Experimental: as §1, §2, §3

[31] = molecular target: kinase named in conditions (Homo sapiens, UniProt Q9H0K1); settings: SNF1LK2, 10 μM
Experimental: as §1, §2, §3

[32] = molecular target: kinase named in conditions (Homo sapiens, UniProt Q9H2X6); settings: HIPK2, 10 μM
Experimental: as §1, §2, §3

[33] = molecular target: kinase named in conditions (Homo sapiens, UniProt Q9H422); settings: HIPK3 (YAK1), 10 μM
Experimental: as §1, §2, §3

[34] = molecular target: kinase named in conditions (Homo sapiens, UniProt Q9P286); settings: PAK7 (KIAA1264), 10 μM
Experimental: as §1, §2, §3

[35] = molecular target: kinase named in conditions (Homo sapiens, UniProt Q9UBS0); settings: RPS6KB2 (p70S6Kb), 10 μM
Sequence of kinase named in conditions (Homo sapiens, UniProt Q9UBS0) (Q9UBS0 whole entry): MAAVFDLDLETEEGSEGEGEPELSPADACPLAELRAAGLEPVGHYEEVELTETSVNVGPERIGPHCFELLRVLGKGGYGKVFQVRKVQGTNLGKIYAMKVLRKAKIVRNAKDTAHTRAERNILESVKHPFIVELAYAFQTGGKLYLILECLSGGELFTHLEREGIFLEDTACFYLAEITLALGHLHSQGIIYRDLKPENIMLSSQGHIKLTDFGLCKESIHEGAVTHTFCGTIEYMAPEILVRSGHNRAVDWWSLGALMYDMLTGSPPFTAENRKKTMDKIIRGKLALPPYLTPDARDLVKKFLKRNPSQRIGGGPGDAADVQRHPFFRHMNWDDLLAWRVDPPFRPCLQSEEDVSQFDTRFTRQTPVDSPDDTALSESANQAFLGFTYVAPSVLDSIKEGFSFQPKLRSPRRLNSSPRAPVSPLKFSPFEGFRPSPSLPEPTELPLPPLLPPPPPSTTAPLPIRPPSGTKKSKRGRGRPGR
Experimental: as §1, §2, §3

Structure (SMILES): FC(F)(F)c1c(Cl)ccc(-n2ccnn2)c1Cl [8l, 1-(2,4-Dichloro-3-(trifluoromethyl)phenyl)-1H-1,2,3-triazole]
- inhibition at 10 µM [1]: 3%
- inhibition at 10 µM [2]: 5%
- inhibition at 10 µM [3]: 24%
- inhibition at 10 µM [4]: 3%
- inhibition at 10 µM [5]: -4%
- inhibition at 10 µM [6]: -8%
- inhibition at 10 µM [7]: 13%
- inhibition at 10 µM [8]: 12%
- inhibition at 10 µM [9]: -4%
- inhibition at 10 µM [10]: 9%
- inhibition at 10 µM [11]: 13%
- inhibition at 10 µM [12]: 4%
- inhibition at 10 µM [13]: 7%
- inhibition at 10 µM [14]: 2%
- inhibition at 10 µM [15]: 6%
- inhibition at 10 µM [16]: 3%
- inhibition at 10 µM [17]: 2%
- inhibition at 10 µM [18]: 3%
- inhibition at 10 µM [19]: 13%
- inhibition at 10 µM [20]: 1%
- inhibition at 10 µM [21]: 1%
- inhibition at 10 µM [22]: 5%
- inhibition at 10 µM [23]: 0%
- inhibition at 10 µM [24]: -4%
- inhibition at 10 µM [25]: -11%
- inhibition at 10 µM [26]: 2%
- inhibition at 10 µM [27]: 14%
- inhibition at 10 µM [28]: 10%
- inhibition at 10 µM [29]: -2%
- inhibition at 10 µM [30]: 2%
- inhibition at 10 µM [31]: 2%
- inhibition at 10 µM [32]: 2%
- inhibition at 10 µM [33]: 3%
- inhibition at 10 µM [34]: 8%
- inhibition at 10 µM [35]: 4%
